Measurements taken from paper doi:10.1101/2024.06.16.599186v1 (biorxiv, 2024).
Counter-ions that a name gives are not always drawn.

Biological target: MoGep4 (Pyricularia oryzae, UniProt G4N1T8)
Sequence (G4N1T8 1-216): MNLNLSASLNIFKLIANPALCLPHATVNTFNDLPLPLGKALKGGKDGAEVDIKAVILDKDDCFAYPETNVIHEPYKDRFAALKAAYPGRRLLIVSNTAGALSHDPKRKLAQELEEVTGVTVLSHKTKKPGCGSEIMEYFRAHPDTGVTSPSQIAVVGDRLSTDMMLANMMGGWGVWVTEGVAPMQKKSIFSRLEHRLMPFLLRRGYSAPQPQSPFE

CCCCC(CC)CNC(=N)NC(=N)NCCCCCCNC(=N)NC(=N)NCC(CC)CCCC (stereo not shown) [AXD, alexidine dihydrochloride]
% inhibition at 4 μM: 62.9%
